The supplement of paper PMC10307832

Key:
Assay in all cases: relative viability (nuclei count vs DMSO), 5 days (fraction); higher = more cells survive
[1] = compound: N#CC[C@H](C1CCCC1)n1cc(-c2ncnc3[nH]ccc23)cn1 [Ruxolitinib] + COc1cccc2cc(-c3nc([C@H]4CC[C@H](C(=O)O)CC4)n4ncnc(N)c34)[nH]c12 [OSI-027] (partner 0.5 µM)
Summary of the method: (§1)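 Cells from lung cancer lines were seeded into 1536-well plates and, one day later, dosed by pin tool. Treatments were either a single drug or a fixed dose of an anchor drug with five library-drug doses (not always all listed) in √10 steps. After 5 days, nuclei were stained in a one-step fixation (final 0.05% Triton X-100, 1% formaldehyde, 1 ug/ml Hoechst) and counted on 4× images, and relative viability is the treated-to-vehicle nuclei ratio, as the median of duplicate plates.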

[2] = compound: CS(=O)(=O)c1ccc(-c2cnc(N)c(C(=O)Nc3ccccc3)n2)cc1 [VE-821] + COc1cccc2cc(-c3nc([C@H]4CC[C@H](C(=O)O)CC4)n4ncnc(N)c34)[nH]c12 [OSI-027] (partner 0.5 µM)
Summary of the method: as §1

[3] = compound: N#CC[C@H](C1CCCC1)n1cc(-c2ncnc3[nH]ccc23)cn1 [Ruxolitinib] + N=C(N)NC(=N)NCCc1ccccc1 [Phenformin] (partner 250 µM)
Summary of the method: as §1

[4] = compound: CS(=O)(=O)c1ccc(C(=O)Nc2ccc(Cl)c(-c3ccccn3)c2)c(Cl)c1 [Vismodegib] + NC(=O)Nc1cc(-c2cccc(F)c2)sc1C(=O)N[C@H]1CCCNC1 [AZD7762] (partner 0.2 µM)
Summary of the method: as §1

| Cell Line | relative viability ([1]; first compound 0.08 µM) | relative viability ([1]; first compound 0.253 µM) | relative viability ([1]; first compound 0.8 µM) | relative viability ([1]; first compound 2.53 µM) | relative viability ([1]; first compound 8 µM) | relative viability ([2]; first compound 0.08 µM) | relative viability ([2]; first compound 0.253 µM) | relative viability ([2]; first compound 0.8 µM) | relative viability ([2]; first compound 2.53 µM) | relative viability ([2]; first compound 8 µM) | relative viability ([3]; first compound 0.08 µM) | relative viability ([3]; first compound 0.253 µM) | relative viability ([3]; first compound 0.8 µM) | relative viability ([3]; first compound 2.53 µM) | relative viability ([3]; first compound 8 µM) | relative viability ([4]; first compound 0.08 µM) | relative viability ([4]; first compound 0.253 µM) | relative viability ([4]; first compound 0.8 µM) | relative viability ([4]; first compound 2.53 µM) | relative viability ([4]; first compound 8 µM) |
| --- | --- | --- | --- | --- | --- | --- | --- | --- | --- | --- | --- | --- | --- | --- | --- | --- | --- | --- | --- | --- |
| NCI-H1437 | 0.965 | 0.758 | 0.926 | 0.752 | 0.78 | 1.12 | 0.831 | 0.838 | 0.851 | 0.756 | 0.341 | 0.287 | 0.29 | 0.275 | 0.271 | 1.02 | 1.11 | 1.1 | 1.02 | 1.02 |
| 201T | 0.768 | 0.722 | 0.809 | 0.919 | 0.905 | 0.815 | 0.672 | 0.688 | 0.747 | 0.381 | 0.44 | 0.455 | 0.473 | 0.429 | 0.503 | 0.624 | 0.623 | 0.696 | 0.622 | 0.581 |
| LCLC-103H | 0.497 | 0.394 | 0.48 | 0.45 | 0.488 | 0.478 | 0.478 | 0.404 | 0.468 | 0.365 | 0.349 | 0.326 | 0.298 | 0.337 | 0.286 | 0.752 | 0.796 | 0.735 | 0.774 | 0.834 |
| NCI-H1915 | 0.622 | 0.619 | 0.663 | 0.463 | 0.464 | 0.701 | 0.593 | 0.618 | 0.684 | 0.534 | 0.375 | 0.41 | 0.384 | 0.358 | 0.343 | 0.724 | 0.667 | 0.714 | 0.716 | 0.749 |
| NCI-H2085 | 0.674 | 0.633 | 0.745 | 0.672 | 0.647 | 0.788 | 0.736 | 0.489 | 0.747 | 0.334 | 0.758 | 0.774 | 0.831 | 0.627 | 0.642 | 0.972 | 0.972 | 1.11 | 0.997 | 0.914 |
| EKVX | 0.661 | 0.641 | 0.486 | 0.632 | 0.733 | 0.696 | 0.675 | 0.676 | 0.745 | 0.605 | 0.275 | 0.209 | 0.204 | 0.221 | 0.235 | – | 0.774 | 0.717 | 0.606 | 0.735 |
| NCI-H650 | – | 0.497 | 0.618 | 0.502 | 0.341 | 0.499 | 0.473 | 0.57 | 0.455 | 0.532 | – | 0.449 | 0.519 | 0.351 | 0.342 | 0.958 | 0.925 | 0.864 | 0.953 | 1.06 |
| NCI-H2087 | 0.488 | 0.413 | 0.585 | 0.478 | 0.642 | 0.537 | 0.576 | 0.515 | 0.683 | 0.495 | 0.531 | 0.388 | 0.523 | 0.409 | 0.382 | 1.28 | 1.14 | 1.14 | 1.33 | 1.36 |
| NCI-H596 | 0.826 | 0.699 | 0.841 | 0.69 | 0.758 | 0.648 | 0.519 | 0.534 | 0.558 | 0.451 | 0.975 | 0.793 | 0.801 | 0.706 | 0.836 | 1.07 | 1.04 | 0.954 | 1.11 | 1.08 |
| LC-2-ad | – | 0.667 | 0.859 | 0.733 | 0.524 | 0.878 | 0.945 | 0.986 | 0.928 | 0.789 | – | 0.515 | 0.561 | 0.553 | 0.456 | 0.823 | 0.822 | 0.84 | 0.864 | 0.751 |
| NCI-H2126 | 0.758 | 0.664 | 0.74 | 0.794 | 0.689 | 0.757 | 0.651 | 0.645 | 0.59 | 0.49 | 0.518 | 0.474 | 0.568 | 0.528 | 0.522 | 1.08 | 0.912 | 0.978 | 0.933 | 1.03 |
| NCI-H647 | 0.73 | 0.706 | 0.797 | 0.531 | 0.595 | 0.748 | 0.786 | 0.676 | 0.509 | 0.376 | 0.481 | 0.517 | 0.502 | 0.481 | 0.531 | 0.474 | 0.482 | 0.415 | 0.375 | 0.51 |
| NCI-H322M | 0.506 | 0.538 | 0.704 | 0.594 | 0.63 | 0.533 | 0.519 | 0.577 | 0.482 | 0.286 | 0.777 | 0.768 | 0.936 | 0.962 | 1.02 | 0.598 | 0.503 | 0.603 | 0.507 | 0.548 |
| NCI-H358 | 0.417 | 0.654 | 0.754 | 0.406 | 0.565 | 0.983 | 0.875 | 0.727 | 0.79 | 0.48 | 0.291 | 0.271 | 0.319 | 0.189 | 0.26 | 0.529 | 0.57 | 0.664 | 0.477 | 0.611 |
